In patent US20260001928A1 (CORTERIA PHARMACEUTICALS, priority 2022, published 2026):
*1 amine or outer side, *2 acyl side, *3 side chain or, on linkers, in order; H or OH if unused. Where a SMILES comes first, the peptide text is derived from it. Side-chain parts run from the residue outwards. [ ]: non-standard residue; d: D form. The star is where a group is joined. C20 diacid = O=C(O)CCCCCCCCCCCCCCCCCCC(=O)*; C18 diacid = O=C(O)CCCCCCCCCCCCCCCCC(=O)*; C16 diacid = O=C(O)CCCCCCCCCCCCCCC(=O)*; γGlu = O=C(O)[C@H](CCC(=O)[*:2])N[*:1]; Decanoyl = CCCCCCCCCC(=O)*; Nva = CCC[C@H](N)C(=O)O; Pentanoyl = CCCCC(=O)*; Aib = CC(C)(N)C(=O)O

Legend:
[1] = tested on: Sprague Dawley rats; assay: Effect on systolic blood pressure, telemetry in Sprague Dawley rats; format: in vivo, rat; conditions: 0.1 mg/kg SC; for Systolic blood pressure (Mean) % change from baseline, 8 h / Systolic blood pressure (Mean) % change from baseline, 12 h / Systolic blood pressure (Mean) % change from baseline, 24 h: n=2; for Duration of action: last time point with an effect on BP still observed
Procedure: The effect of the compounds on systolic blood pressure was determined in telemetry studies in Sprague Dawley rats at a dosage of 0.1 mg/kg SC.
The rats were previously implanted with a telemetry device (DSI, Saint-Paul, USA, HD-S10, HD-S11 or HD S21) and allowed to recover for a minimum period of 2 weeks before treatment with vehicle or the different peptides. Blood pressure (BP) was recorded through a catheter inserted into the abdominal aorta. The device body was placed in the abdomen. The animals were allowed to recover from surgery for at least 10 days before the first administration of test drug or vehicle.
The chronically instrumented rats of the telemetry studies were individually housed immediately after surgery and then housed in pairs with a non-instrumented companion after recovery.
Systolic blood pressure was recorded for one hour before treatment (basal period). Thereafter, the subcutaneous administration of the test compound or its vehicle was performed, under continuous recording of the signal up to 48 hours, analysed and expressed as % change from baseline.
Representative data are presented in Table 13 below, in which “Duration of action” indicates the last time point for which an effect on BP was still observed (n=2 animals/peptide)

[2] = target: T1, CFR1R receptor (Homo sapiens, UniProt P34998); assay: Activity at anti-target CFR1R receptor, cAMP assay in CRF1R-overexpression CHO-K1 cells; format: cell-based; conditions: 100% = Sauvagine at 100 nM; for EC50: cAMP
T1 construct: host or cells: CHO-K1 (clone 2)
T1 sequence (P34998 24-415): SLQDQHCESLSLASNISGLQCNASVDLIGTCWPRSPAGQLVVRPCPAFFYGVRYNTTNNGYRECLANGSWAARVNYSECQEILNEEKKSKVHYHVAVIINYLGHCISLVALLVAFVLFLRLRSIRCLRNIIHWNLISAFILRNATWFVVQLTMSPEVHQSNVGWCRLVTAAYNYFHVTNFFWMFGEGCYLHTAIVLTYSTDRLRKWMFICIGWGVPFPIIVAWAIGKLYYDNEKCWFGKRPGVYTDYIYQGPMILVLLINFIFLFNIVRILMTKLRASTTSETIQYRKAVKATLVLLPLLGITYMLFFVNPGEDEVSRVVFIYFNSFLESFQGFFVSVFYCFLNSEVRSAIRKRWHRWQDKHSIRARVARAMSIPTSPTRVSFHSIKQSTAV
Procedure, shortened: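 Clone 2 cells were cultured in F12 (Hams)/10% FBS/400 μg/ml G418 at 37° C./5% CO2, frozen in medium with 10% DMSO, and thawed vials used. The protocol followed the TeloHAEC procedure, with 4000 cells/well final and Sauvagine at 100 nM defining 100% activation.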

[3] = target: T2, human CRF2a receptor (Homo sapiens, UniProt Q13324); assay: Activity at human CRF2a receptor, cAMP functional assay in TeloHEAC cells; format: cell-based; conditions: TeloHEAC cells stably expressing human CRF2a receptor, relative to urocortin 2 (100 nM = 100%)
T2 construct: expressed in transfected cells; host or cells: TeloHEAC cells
T2 sequence (Q13324 1-411): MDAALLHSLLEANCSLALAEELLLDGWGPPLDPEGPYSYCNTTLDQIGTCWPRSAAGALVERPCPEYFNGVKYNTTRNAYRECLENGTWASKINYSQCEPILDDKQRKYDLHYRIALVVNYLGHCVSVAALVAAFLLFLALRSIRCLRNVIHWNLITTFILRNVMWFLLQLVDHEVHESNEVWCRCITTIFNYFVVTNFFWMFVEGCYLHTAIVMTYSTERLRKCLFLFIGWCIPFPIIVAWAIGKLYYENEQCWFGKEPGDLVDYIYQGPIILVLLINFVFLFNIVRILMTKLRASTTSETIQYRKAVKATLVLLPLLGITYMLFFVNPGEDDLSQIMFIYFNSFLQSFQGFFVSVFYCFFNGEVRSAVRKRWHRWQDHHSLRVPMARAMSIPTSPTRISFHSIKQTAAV
Procedure, shortened: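 TeloHEAC cells stably expressing human CRF2a (10000 cells/well) were treated with 16-point 1:2 compound dilutions in HBSS/20 mM HEPES with IBMX for 30 min at 37° C. cAMP was read by HTRF (665/620 nm ratio). EC50 was the concentration giving 50% activation, with 100 nM urocortin 2 set as 100%.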

Emax (% I) [2]	EC50 [2]	EC50 [3]	Structure (SMILES)	Systolic blood pressure (Mean) % change from baseline, 8 h [1]	Systolic blood pressure (Mean) % change from baseline, 12 h [1]	Systolic blood pressure (Mean) % change from baseline, 24 h [1]	Duration of action [1]
7 % I	> 250 nM	0.17 nM	CCC[C@H](NC(=O)[C@H](CC(N)=O)NC(=O)[C@@H](NC(=O)[C@H](CCC(=O)O)NC(=O)[C@H](C)NC(=O)[C@H](CCC(N)=O)NC(=O)[C@H](CCC(=O)O)NC(=O)[C@H](CCCNC(=N)N)NC(=O)[C@H](CCC(N)=O)NC(=O)[C@H](CCCCN)NC(=O)[C@H](CCCCN)NC(=O)[C@H](CCC(N)=O)NC(=O)[C@H](CCCCN)NC(=O)[C@H](CCC(=O)O)NC(=O)[C@H](CCC(N)=O)NC(=O)[C@H](CCC(=O)O)NC(=O)[C@H](CC(C)C)NC(=O)[C@H](CC(C)C)NC(=O)[C@@H](NC(=O)[C@H](CCCCN)NC(=O)[C@H](CCCCNC(=O)CC[C@H](NC(=O)CCCCCCCCCCCCCCC(=O)O)C(=O)O)NC(=O)[C@H](CC(C)C)NC(=O)[C@H](CCCCN)NC(=O)[C@@H](NC(=O)[C@@H]1CCCN1C(=O)[C@H](NC(=O)[C@H](CC(=O)O)NC(=O)[C@H](CC(C)C)NC(=O)[C@H](CO)NC(=O)[C@H](CC(C)C)NC(=O)[C@@H](NC(=O)[C@@H](NC(C)=O)[C@@H](C)CC)C(C)C)C(C)C)[C@@H](C)CC)[C@@H](C)CC)[C@@H](C)O)C(=O)N[C@@H](CCC(N)=O)C(=O)N[C@H](C(=O)N[C@@H](CC(C)C)C(=O)N[C@@H](C)C(=O)N[C@@H](CCC(N)=O)C(=O)N[C@H](C(N)=O)C(C)C)[C@@H](C)CC [compound 52] (Ac-IVLSLD[dV]PIKLK([γGlu-C16 diacid])KILLEQEKQKKQREQAETN[Nva]QILAQV-NH2)	−28%	−17%	4%	23 h
54 % I		0.04 nM	CCCCCCCCCC(=O)N[C@H](C(=O)N[C@@H](CC(C)C)C(=O)N[C@@H](CO)C(=O)N[C@@H](CC(C)C)C(=O)N[C@@H](CC(=O)O)C(=O)N[C@@H](C(=O)N1CCC[C@H]1C(=O)N[C@H](C(=O)N[C@@H](CCCCN)C(=O)N[C@@H](CC(C)C)C(=O)N[C@@H](CCCCNC(=O)CC[C@H](NC(=O)CCCCCCCCCCCCCCC(=O)O)C(=O)O)C(=O)N[C@@H](CCCCN)C(=O)N[C@H](C(=O)N[C@@H](CC(C)C)C(=O)N[C@@H](CC(C)C)C(=O)N[C@@H](CCC(=O)O)C(=O)N[C@@H](CCC(N)=O)C(=O)N[C@@H](CCC(=O)O)C(=O)N[C@@H](CCCCN)C(=O)N[C@@H](CCC(N)=O)C(=O)N[C@@H](CCCCN)C(=O)N[C@@H](CCCCN)C(=O)N[C@@H](CCC(N)=O)C(=O)N[C@@H](CCCNC(=N)N)C(=O)N[C@@H](CCC(=O)O)C(=O)N[C@@H](CCC(N)=O)C(=O)N[C@@H](C)C(=O)N[C@@H](CCC(=O)O)C(=O)N[C@H](C(=O)N[C@@H](CC(N)=O)C(=O)NC(C)(C)C(=O)N[C@@H](CCC(N)=O)C(=O)N[C@H](C(=O)N[C@@H](CC(C)C)C(=O)N[C@@H](C)C(=O)N[C@@H](CCC(N)=O)C(=O)N[C@H](C(N)=O)C(C)C)[C@@H](C)CC)[C@@H](C)O)[C@@H](C)CC)[C@@H](C)CC)C(C)C)C(C)C [compound 158] (Decanoyl-VLSLD[dV]PIKLK([γGlu-C16 diacid])KILLEQEKQKKQREQAETN[Aib]QILAQV-NH2)	−11%	−7%	3%	23 h
10 % I	> 250 nM	0.44 nM	CCCCC(=O)N[C@H](C(=O)N[C@@H](CC(C)C)C(=O)N[C@@H](CO)C(=O)N[C@@H](CC(C)C)C(=O)N[C@@H](CC(=O)O)C(=O)N[C@@H](C(=O)N1CCC[C@H]1C(=O)N[C@H](C(=O)N[C@@H](CCCCN)C(=O)N[C@@H](CC(C)C)C(=O)N[C@@H](CCCCNC(=O)CC[C@H](NC(=O)CCCCCCCCCCCCCCCCC(=O)O)C(=O)O)C(=O)N[C@@H](CCCCN)C(=O)N[C@H](C(=O)N[C@@H](CC(C)C)C(=O)N[C@@H](CC(C)C)C(=O)N[C@@H](CCC(=O)O)C(=O)N[C@@H](CCC(N)=O)C(=O)N[C@@H](CCC(=O)O)C(=O)N[C@@H](CCCCN)C(=O)N[C@@H](CCC(N)=O)C(=O)N[C@@H](CCCCN)C(=O)NC(C)(C)C(=O)N[C@@H](CCC(N)=O)C(=O)N[C@@H](CCCNC(=N)N)C(=O)N[C@@H](CCC(=O)O)C(=O)N[C@@H](CCC(N)=O)C(=O)N[C@@H](C)C(=O)N[C@@H](CCC(=O)O)C(=O)N[C@H](C(=O)N[C@@H](CC(N)=O)C(=O)NC(C)(C)C(=O)N[C@@H](CCC(N)=O)C(=O)N[C@H](C(=O)N[C@@H](CC(C)C)C(=O)N[C@@H](C)C(=O)N[C@@H](CCC(N)=O)C(=O)N[C@H](C(N)=O)C(C)C)[C@@H](C)CC)[C@@H](C)O)[C@@H](C)CC)[C@@H](C)CC)C(C)C)C(C)C [compound 194] (Pentanoyl-VLSLD[dV]PIKLK([γGlu-C18 diacid])KILLEQEKQK[Aib]QREQAETN[Aib]QILAQV-NH2)	−13%	−3%	18%	19 h
21 % I	> 250 nM	0.22 nM	CC[C@H](C)[C@H](NC(C)=O)C(=O)N[C@H](C(=O)N[C@@H](CC(C)C)C(=O)N[C@@H](CO)C(=O)N[C@@H](CC(C)C)C(=O)N[C@@H](CC(=O)O)C(=O)N[C@@H](C(=O)N1CCC[C@H]1C(=O)N[C@H](C(=O)N[C@@H](CCCCN)C(=O)N[C@@H](CC(C)C)C(=O)N[C@@H](CCCCNC(=O)CC[C@H](NC(=O)CCCCCCCCCCCCCCCCCCC(=O)O)C(=O)O)C(=O)N[C@@H](CCCCN)C(=O)N[C@H](C(=O)N[C@@H](CC(C)C)C(=O)N[C@@H](CC(C)C)C(=O)N[C@@H](CCC(=O)O)C(=O)N[C@@H](CCC(N)=O)C(=O)N[C@@H](CCC(=O)O)C(=O)N[C@@H](CCCCN)C(=O)N[C@@H](CCC(N)=O)C(=O)N[C@@H](CCCCN)C(=O)NC(C)(C)C(=O)N[C@@H](CCC(N)=O)C(=O)N[C@@H](CCCNC(=N)N)C(=O)N[C@@H](CCC(=O)O)C(=O)N[C@@H](CCC(N)=O)C(=O)N[C@@H](C)C(=O)N[C@@H](CCC(=O)O)C(=O)N[C@H](C(=O)N[C@@H](CC(N)=O)C(=O)NC(C)(C)C(=O)N[C@@H](CCC(N)=O)C(=O)N[C@H](C(=O)N[C@@H](CC(C)C)C(=O)N[C@@H](C)C(=O)N[C@@H](CCC(N)=O)C(=O)N[C@H](C(N)=O)C(C)C)[C@@H](C)CC)[C@@H](C)O)[C@@H](C)CC)[C@@H](C)CC)C(C)C)C(C)C [compound 209] (Ac-IVLSLD[dV]PIKLK([γGlu-C20 diacid])KILLEQEKQK[Aib]QREQAETN[Aib]QILAQV-NH2)	−18%	−11%	3%	23 h
